Source: patent publication US11116767B2, “3,5-disubstituted pyrazoles useful as checkpoint kinase 1 (Chk1) inhibitors, and their preparations and applications” (PHARMAENGINE, INC., priority 2016, dated 2021)
pIC50: −log10 of the molar value. Like-named read-outs stand apart in the source and are kept apart here.

How the values were obtained:
HT-29 = test: Cancer cell growth inhibition assay (CellTiter-Glo), HT-29; assay type: cell-based, Human; conditions: 72 hours, cellular ATP content, read-out: HT-29 anti cell proliferation activity (grade)
Protocol: (§1) Human cancer cell lines were purchased from American Type Culture Collection (Manassas, Va.). The trypsinized cells were diluted to required volume at densities of 44,000 cells/ml. 90 ul cell slurry was dispensed per well in 96-well flat-bottomed plates with the recommended culture medium. The cells were incubated for 24 hours at 37° C. in 5% CO2 under humidified condition. The cells were then incubated with compounds at various concentrations for 72 hours in culture medium supplemented with 0.5% (v/v) FBS. Growth inhibition was assessed by assay of cellular ATP content using CellTiter-Glo reagent to each well. Luminesce was read on Envision. The inhibition rate (%)=(Max signal compound signal)/(Max signal Min signal)×100.

Chk1 = target: T1, Chk1 (Homo sapiens, UniProt O14757); test: biochemical; conditions: ADP-Glo; read-out: Chk1 in vitro enzyme activity (grade)
T1 construct: purchased BPS 40039
T1 sequence (O14757 1-476): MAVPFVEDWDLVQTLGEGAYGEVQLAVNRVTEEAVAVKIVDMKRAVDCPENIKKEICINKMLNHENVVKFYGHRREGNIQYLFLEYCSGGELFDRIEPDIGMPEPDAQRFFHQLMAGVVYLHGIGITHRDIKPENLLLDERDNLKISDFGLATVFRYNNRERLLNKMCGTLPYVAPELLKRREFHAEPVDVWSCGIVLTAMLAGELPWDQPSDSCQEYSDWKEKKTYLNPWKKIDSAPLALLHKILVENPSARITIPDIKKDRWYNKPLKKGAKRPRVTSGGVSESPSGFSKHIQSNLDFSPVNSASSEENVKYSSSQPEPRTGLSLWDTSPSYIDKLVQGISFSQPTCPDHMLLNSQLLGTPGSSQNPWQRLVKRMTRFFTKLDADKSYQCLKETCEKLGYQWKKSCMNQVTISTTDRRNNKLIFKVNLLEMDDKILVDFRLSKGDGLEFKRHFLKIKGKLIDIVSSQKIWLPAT

MDA-MB-231 = test: Cancer cell growth inhibition assay (CellTiter-Glo), MDA-MB-231; assay type: cell-based, Human; conditions: 72 hours, cellular ATP content, read-out: MDA-MB-231 anti cell proliferation activity (grade)
Protocol: as §1

[1] = Human liver S9 metabolic stability; assay type: in vitro ADME; conditions: for Percentage Remaining %: 1 μM, 37° C.; for half-life at 1 μM: human liver S9, 1 μM
Protocol: Compounds (1 μM) were incubated with human liver S9 (from BD Gentest) at final liver microsomal protein concentration of 0.5 mg/mL for 0, 5, 15, 30, 45 min at 37° C. The remaining compounds in the reaction were measured by LC-MS/MS. The half-life (T½) 0.693/K (K is the rate constant from a plot of ln [concentration] vs. incubation time).

Chk2 = target: T2, Chk2 (Homo sapiens, UniProt O96017); test: biochemical; conditions: ADP-Glo; read-out: Chk2 in vitro enzyme activity (grade)
T2 construct: purchased Carna 02-162

[2] = Pharmacokinetics study in rats, intravenous; assay type: in vivo, SD rats; conditions: rat; for AUC(0-inf) / AUC(0-t) / clearance / MRT / half-life / Vd: male, SD, plasma; for AUC(0-inf): read-out: AUC0-inf; for AUC(0-t): read-out: AUC0-t; for clearance: read-out: CL (converted); for MRT: read-out: MRT; for half-life: read-out: t½ (converted)
Protocol: Compounds were formulated in 30% SEB-β-CD (Zhiyuan Bio-technology) with 1 molar equivalents of HCl (pH adjusted to 3-5). Male SD rats (280-350 g) were purchased from Medical Laboratory Animal Center of Guangdong. Three rats were used for each PK study. […] At various time points after compound administration, approximately 0.2˜0.3 mL of blood was collected by cutting the end of tail into tubes containing K2-EDTA. The plasma was separated via centrifugation and stored at −80° C. A PE Sciex API-3000 LC-MS/MS system (Applied Biosystems, Inc.) was used to analyze compound concentrations in plasma.
PK studies of ChK1 inhibitors were conducted in rats after intravenous administration at 10 mg/kg. […]. […]

[3] = system: ChK1 phosphorylation (pChK1 S296) in HT-29 colon cancer cells; test: Western blot analysis of ChK1 phosphorylation in HT-29 cells with SN-38; assay type: cell-based, Human; conditions: HT-29 cells pre-incubated with Chk1 inhibitor 0.5 hours, then SN-38 (200 nM) 16 hours
[4] = system: HT-29 colon cancer xenograft; assay type: in vivo
Protocol: (§2) Female Balb/c nude mice at 7-8 weeks of age (Body weights between 17-18g) were purchased from Hunan SJA Laboratory Animal Co., Ltd. HT-29 cells were cultured in DMEM culture medium containing 10% fetal bovine serum and LoVo cells were cultured in RPMI 1640 culture medium containing 10% fetal bovine serum. The cells were harvested and washed with serum free culture medium. Finally, the cells were suspended at a cell density of […] in serum free culture medium for implantation. 5 million cells per animal suspended in 0.1 ml serum free culture medium and 1.1 matrigel were injected into the right flank of the animals after a one, week acclimation period. When average tumor volume reached acceptable tumor size (100-200 mm^3) and shape, the animals were randomly assigned into treatment groups.
HT-29 colon cancer cells were implanted to establish the xenograft model in Balb/c nude mice. Compound 3 and LY2606368 were dissolved in 30% SEB-β-CD (Zhiyuan Bio-technology) with 1 molar equivalents of HCl. GDC-575 was suspended in 0.5% methyl cellulose/0.1% Tween 80 in water. […]. The animals well tolerated each treatment in the HT-29 colon cancer in nude mice model.

[5] = system: LoVo colon cancer xenograft; test: LoVo colon xenograft model; assay type: in vivo, Balb/c nude mice; conditions: IV, twice a week
Protocol: as §2
Lovo colon cancer cells were implanted to establish the xenograft model in Balb/c nude mice. Compound 3 and LY2606368 were dissolved in 30% SEB-β-CD (Zhiyuan Bio-technology) with 1 molar equivalents of HCl. […]

HT-29 tumor xenograft = test: HT-29 xenograft model, alone or in combination with CPT-11; assay type: in vivo, Balb/c nude mice; conditions: for % T/C value: 15 mg/kg, IV
Protocol: as §2
In HT-29 tumor xenograft model, the animals were treated with a single compound, a ChK1 inhibitor or CPT-11, or a combination with CPT11. […] The animals well tolerated each treatment in the HT-29 colon cancer in nude mice model.

T2 sequence (O96017 whole entry): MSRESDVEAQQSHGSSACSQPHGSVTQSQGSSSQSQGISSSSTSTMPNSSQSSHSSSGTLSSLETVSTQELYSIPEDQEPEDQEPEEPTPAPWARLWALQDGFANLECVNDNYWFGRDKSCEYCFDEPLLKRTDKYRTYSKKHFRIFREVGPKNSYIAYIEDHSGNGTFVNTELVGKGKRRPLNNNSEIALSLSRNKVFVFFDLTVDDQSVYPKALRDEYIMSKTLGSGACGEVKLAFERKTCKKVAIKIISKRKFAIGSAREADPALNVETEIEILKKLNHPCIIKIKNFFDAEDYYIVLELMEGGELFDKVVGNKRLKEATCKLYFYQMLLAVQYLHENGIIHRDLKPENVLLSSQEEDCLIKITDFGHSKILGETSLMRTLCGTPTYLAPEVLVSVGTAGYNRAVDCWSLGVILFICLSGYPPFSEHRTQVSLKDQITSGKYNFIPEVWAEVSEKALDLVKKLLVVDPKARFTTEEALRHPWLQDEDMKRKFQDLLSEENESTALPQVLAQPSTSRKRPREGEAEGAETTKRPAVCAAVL

In the case of COc1cc(Cl)cc(OCCCN)c1-c1cc(Nc2cnc(C#N)cn2)n[nH]1 [Compound 4, 5-(5-(2-(3-Aminopropoxy)-4-chloro-6-methoxyphenyl)-1H-pyrazol-3-ylamino)pyrazine-2-carbonitrile], the pIC50 (HT-29; Homo sapiens, HT-29) was 7.30 to 8.00, the pIC50 (Chk1) was ≥ 9.00 and the pIC50 (MDA-MB-231; Homo sapiens, MDA-MB-231) was 7.30 to 8.00. The “Percentage Remaining %” value ([1]; 0 min) was 100.00%, the “Percentage Remaining %” value ([1]; 5 min) was 97.57% and the “Percentage Remaining %” value ([1]; 15 min) was 94.83%. For the same molecule, the “Percentage Remaining %” value ([1]; 30 min) was 88.45%, the “Percentage Remaining %” value ([1]; 45 min) was 82.67% and the “metabolic stability compared with LY2606368” value ([1]; human liver S9) was “more metabolic stable than LY2606368”. For the same molecule, the half-life at 1 μM [1] was 103 h, the pIC50 (Chk2) was 7.00 to 7.30 and the AUC(0-inf) ([2]; IV, 10 mg/kg) was 2400 ng·h/mL. For the same molecule, the AUC(0-t) ([2]; IV, 10 mg/kg) was 2390 ng·h/mL, the clearance ([2]; IV, 10 mg/kg) was 78.3 mL/min/kg and the MRT ([2]; IV, 10 mg/kg) was 3.1 h. It also gave a half-life ([2]; IV, 10 mg/kg) of 3.3 h, a Vd ([2]; iv, 10 mg/kg, IV, 10 mg/kg, read-out: Vd) of 22.1 L/kg and a Vd ([2]; iv, 10 mg/kg, IV, 10 mg/kg, read-out: Vss) of 14.3 L/kg. The “half-life and exposure compared with LY2606368” value ([2]; IV, 10 mg/kg (LY2606368 5 mg/kg)) was “longer half-life and higher exposure than LY2606368” and the melting point was 198 to 203 °C.
For N[C@@H]1CCCN(c2c(Br)cnc3[nH]cc(NC(=O)C4CC4)c23)C1 [GDC-0575, reference compound], the “inhibition of Chk1 phosphorylation (FIG. 1)” value [3] was “less potent than these compounds”, the pIC50 (HT-29) was 6.30 to 7.00 and the pIC50 (Chk1) was 8.00 to 9.00. The pIC50 (MDA-MB-231) was 6.30 to 7.00, the pIC50 (Chk2) was 7.00 to 7.30 and the T/C value ([4]; 25 mg/kg, po, 3 times/week) was 50%. For the same molecule, the “Tumor volume (X ± SD)” value ([4]; 25 mg/kg, po, 3 times/week) was 515 ± 158 mm^3 and the “Tumor weight (X ± SD)” value ([4]; 25 mg/kg, po, 3 times/week) was 349 ± 94 mg.
In the case of COc1cccc(OCCCN)c1-c1cc(Nc2cnc(C#N)cn2)n[nH]1 [LY-2606368, reference compound], the pIC50 (HT-29; Homo sapiens, HT-29) was 7.30 to 8.00, the pIC50 (MDA-MB-231; Homo sapiens, MDA-MB-231) was 7.30 to 8.00 and the half-life at 1 μM [1] was 1.47 h. For the same molecule, the T/C value ([5]; 15 mg/kg) was −57%, the tumor growth inhibition ([5]; LY2606368 15 mg/kg, Compound 3 10, 20, 40 mg/kg) was “significant tumor growth inhibition in a dose-dependent manner” and the AUC(0-inf) ([2]; IV, 5 mg/kg) was 637 ng·h/mL. It also gave an AUC(0-t) ([2]; IV, 5 mg/kg) of 631 ng·h/mL, a clearance ([2]; IV, 5 mg/kg) of 132 mL/min/kg and an MRT ([2]; IV, 5 mg/kg) of 1.2 h. The half-life ([2]; IV, 5 mg/kg) was 1.3 h, the Vd ([2]; iv, 5 mg/kg, IV, 5 mg/kg, read-out: Vd) was 14.7 L/kg and the Vd ([2]; iv, 5 mg/kg, IV, 5 mg/kg, read-out: Vss) was 9.7 L/kg. The tolerability in rats ([2]; in vivo, iv, 10 mg/kg) was “did not tolerated”, the “% T/C value” (HT-29 tumor xenograft; twice a week plus CPT-11 (50 mg/kg, IV, once per week)) was 0% and the “% T/C value” (HT-29 tumor xenograft; alone, twice a week) was 61%. The “effect on anti-tumor growth activity of CPT11” value (HT-29 tumor xenograft; combination with CPT11) was “enhanced anti-tumor growth activity of CPT11”, the T/C value ([4]; 15 mg/kg, iv, 2 times/week) was 61% and the “Tumor volume (X ± SD)” value ([4]; 15 mg/kg, iv, 2 times/week) was 615 ± 10 mm^3. The “Tumor weight (X ± SD)” value ([4]; 15 mg/kg, iv, 2 times/week) was 390 ± 24 mg.
